# Molecular target: T1, TaHeR (Thermoplasmatales archaeon SG8-52-1, UniProt Z9O312AX90)
# T1 construct: wild type, N-terminal 6xHis tag, pET21a(+), E. coli C43(DE3), purified in octyl glucoside; symmetric dimer, one protomer in asymmetric unit
# T1 sequence (Z9O312AX90 1-259): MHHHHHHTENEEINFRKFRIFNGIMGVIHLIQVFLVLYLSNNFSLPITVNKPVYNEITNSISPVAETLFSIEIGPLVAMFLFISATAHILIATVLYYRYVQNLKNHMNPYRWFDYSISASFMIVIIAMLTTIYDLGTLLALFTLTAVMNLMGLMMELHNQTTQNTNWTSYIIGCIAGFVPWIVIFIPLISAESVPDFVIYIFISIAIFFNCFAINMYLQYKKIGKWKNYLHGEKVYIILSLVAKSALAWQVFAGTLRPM
# Assay: absorption red-shift titration with NaCl
# Assay type: binding
# Details: pH 5.0, up to 300 mM NaCl; anion site in Schiff base cavity near protonated Glu-108; crystal structure at pH 4.5 also shows a second, extracellular chloride
structure (smiles),measurement,value
Cl [chloride],Kd,~67 mM

# From article PMC9385722 (Scientific Reports, 2022)
